Assays:
[1] = free amino acid (lysine sidechain; beta amino group of DAP); cited from earlier work
[2] = system: TEDAP (Vlm TE, serine 2463 replaced by DAP); test: depsipeptidyl-TE complex formation with TEDAP (LC-ESI-MS); format: biochemical, Streptomyces tsusimaensis; settings: incubation with TEDAP
[3] = system: PCC1RS/tRNACUA and PCC2RS/tRNACUA pairs; test: amber codon suppression in reporter genes with photocaged-cysteine synthetase pairs; format: cell-based; settings: cells provided with 3 or 4 and the relevant pair
Excerpt: Compounds 3 and 4 contain a conservative SH to NH2 substitution relative to photocaged cysteine derivatives that we have previously incorporated into proteins using the PCC1RS/tRNACUA and PCC2RS/tRNACUA pairs, respectively^32. (These pairs were derived from the pyrrolysyl-tRNA synthetase/tRNACUA pair).

HA-tagged Ub = test: ubiquitination test with UBE2L3 variants; format: biochemical; settings: for E2-Ub complex formation: 0.2 μM E1, HA-tagged Ub, E2 loading buffer; for redox sensitivity of complex with Ub: presence of ß-mercaptoethanol
Description: Ubiquitination test with UBE2L3(C86DAP). […] Ub-UBE2L3: Thioester-linked (UBE2L3[wt]) or isopeptidelinked (UBE2L3[C86DAP]) E2-Ub complex.
In order to test whether UBE2L3(C86DAP5), which had been irradiated with UV light and incubated overnight at 37° C., could be charged with Ub, a reaction containing 0.2 μM E1 and HA-tagged Ub in E2 loading buffer was set up. Each reaction (positive control [wt], negative control [C86A] and [C86DAP]) was performed with and without Ub (see FIG. 23).

TEDAP = test: LC-ESI-MS analysis of Vlm TE reaction products, TEDAP; format: biochemical, Streptomyces tsusimaensis; settings: incubation with TEDAP
Description: (§1) Extracted ion chromatograms (EICs) from HR-LC-ESI-MS of reactions of tetradepsipeptidyl-SNAC 7 (1.7 mM) and Vlm TE (6.5 μM). a, TEwt produces valinomycin as its major product. […] See Supplementary Table 2 for accurate mass analysis and deviations from calculated m/z values of each compound.
(§2) Purified TEwt or TEDAP at 0.2 mg mL-1 (6.5 μM) was incubated with tetradepsipeptidyl-SNAC 7 (1.7 mM), or a mix of tetradepsipeptidyl-SNAC 7 and deoxytetradepsipeptidyl-SNAC 8 (1.7 mM each) in buffer T. Samples were incubated at room temperature for 24 hours, and then quenched with one volume of 0.1% formic acid in acetonitrile. Next, samples were centrifuged at 20,000 g, flash frozen in liquid nitrogen and stored at −80° C. before HPLC analysis. For HPLC-MS analysis, frozen samples were thawed at room temperature, vortexed and clarified by centrifugation at 20,000 g before injection. HR-LC-ESI-MS was performed at the Mass Spectroscopy Facility (Department of Chemistry, McGill University) with an Agilent XDB-C8 (5 μm, 4.6×150 mm) column in a Dionex Ultimate 3000 UHPLC system coupled to a Bruker maXis impact QTOF mass spectrometer in positive ESI mode. […] Data was analyzed using the Bruker DataAnalysis software and the SmartFormula tool (Bruker).

Vlm TEwt = test: LC-ESI-MS analysis of Vlm TE reaction products, TEwt; format: biochemical, Streptomyces tsusimaensis; settings: incubation with Vlm TEwt
Description: as §1, §2

E. coli = test: LC-MS based amino acid uptake assay (intracellular concentration of DAP derivatives); settings: addition of 1 mM 6 to cell media
[4] = storage and handling of DAP amino acid 6-TFA; format: physicochemical
Excerpt: Storage: The dry sample of DAP amino acid 6-TFA was stored in air-tight dark glass vials in a cold, dry and dark environment and was stable for over 3 years without decomposition.
It is noteworthy that the vial containing 6-TFA taken out from the fridge or freezer was always allowed to warm to r.t. prior to opening and handling.

Ub-tev-His6 = test: reactions of TEV with Ubtev (SDS-PAGE, western blot); format: biochemical; settings: SDS-PAGE and western blot
Excerpt: The use of TEV(wt) results in cleavage of the TEV cleavage sequence. The use of TEV(C151A) results in minimal cleavage. The presence of DAP in the active site of TEV results in the presence of a new band in the coomassie gel, representing the isopeptide-linked TEV(C151DAP)-Ub complex (left). αUb and αStrep western blots of the reactions confirm the identity of the complex (TEV constructs contain a Strep tag). b, Tandem mass spectrometry of isopeptide-linked TEV(C151DAP)-Ub complex. Tandem mass spectrometry unambiguously identifies the DAP modification at the desired site and the expected tev-Gly-Gly modification on the residue, consistent with Ub trapping on DAP.
Tryptic MS/MS of the slower mobility band identifies the isopeptide linkage between DAP and Ub, confirming formation of the TEVDAP-Ub (FIG. 4b). Therefore, the substitution of the catalytic cysteine in TEV with DAP enables the creation of a protease that goes through the first step of the protease cycle: nucleophilic attack on the substrate carbonyl to form the first tetrahedral intermediate. This intermediate collapses, releasing the C-terminal fragment of the substrate and leaving the N-terminal fragment of the substrate covalently attached to the protease, through a stable amide bond that is not subject to hydrolysis. […]

Molecule: NC[C@H](N)C(=O)O (stereo in doubt) [Compound 1, 2,3-diaminopropionic acid]
- pKa of the conjugate acid of the sidechain amine [1]: 9.4

Molecule: CC(=O)NCCSC(=O)[C@@H](NC(=O)[C@@H](C)OC(=O)[C@@H](NC(=O)CC(C)C)C(C)C)C(C)C (single isomer, unassigned) [deoxy-tetradepsipeptidyl-SNAC 8]
- acyl-TEDAP conjugate formation yield [2]: ~70%

Molecule: CC(C)[C@@H]1NC(=O)[C@H](C)OC(=O)[C@@H](C(C)C)NC(=O)[C@@H](C(C)C)OC(=O)[C@H](C(C)C)NC(=O)[C@H](C)OC(=O)[C@@H](C(C)C)NC(=O)[C@@H](C(C)C)OC(=O)[C@H](C(C)C)NC(=O)[C@H](C)OC(=O)[C@@H](C(C)C)NC(=O)[C@@H](C(C)C)OC1=O [valinomycin, reference compound]
- acyl-TEDAP conjugate formation yield [2]: 65-100%

Molecule: N[C@@H](CNCc1ccccc1[N+](=O)[O-])C(=O)O [Compound 3]
- suppression of amber codons in reporter genes [3]: did not function to suppress amber codons

Molecule: UBE2L3(C86DAP): UBE2L3 with DAP at position 86
- E2-Ub complex formation (HA-tagged Ub): higher molecular weight band could also be detected
- redox sensitivity of complex with Ub (HA-tagged Ub): redox insensitive

Molecule: CC(=O)NCCSC(=O)C(NC(=O)C(C)OC(=O)C(NC(=O)C(O)C(C)C)C(C)C)C(C)C [tetradepsipeptidyl-SNAC 7, HO-D-Hiv-D-Val-L-Lac-L-Val-SNAC]
- acyl-TEDAP conjugate formation yield [2]: > 60%
- valinomycin synthesis (TEDAP): did not observe valinomycin synthesis
- valinomycin production (Vlm TEwt): led to production of valinomycin

Molecule: UBE2L3(wt): wild type UBE2L3, positive control
- E2-Ub complex formation (HA-tagged Ub): higher molecular weight band could be observed
- redox sensitivity of complex with Ub (HA-tagged Ub): redox sensitive

Molecule: CC(SCCOC(=O)NC[C@H](N)C(=O)O)c1cc2c(cc1[N+](=O)[O-])OCO2 (mixture of isomers) [Compound 6]
- intracellular concentration (E. coli): approximately 2 mM
- stable without decomposition on storage ([4]; dry sample, air-tight dark glass vials, cold, dry and dark environment): over 3 years
- light and moisture sensitivity on handling ([4]; exposure to moist air): light sensitive and slightly hygroscopic

Molecule: CC(NC[C@H](N)C(=O)O)c1cc2c(cc1[N+](=O)[O-])OCO2 (some centres unmarked) [Compound 4]
- suppression of amber codons in reporter genes [3]: did not function to suppress amber codons

B1: TEVDAP: TEV protease with amino acid 1 (DAP) at position 151 (protein)
chain: GESLFKGPRDYNPISSTICHLTNESDGHTTSLYGIGFGPFIITNKHLFRRNNGTLLVQSLHGVFKVKNTTTLQQHLIDGRDMIIIRMPKDFPPFPQKLKFREPQREERICLVTTNFQTKSMSSMVSDTSCTFPSSDGIFWKHWIQTKDGQCGSPLVSTRDGFIVGIHSASNFTNTNNYFTSVPKNFMELLTNQEAQQWVSGWRLNADSVLWGGHKVFMSKPEEPFQPVKEATQLMN
- outcome of incubation with Ub-tev-His6 (Ub-tev-His6): formation of a new band

B2: wild-type TEV: wild-type tobacco etch virus protease (protein)
chain: GESLFKGPRDYNPISSTICHLTNESDGHTTSLYGIGFGPFIITNKHLFRRNNGTLLVQSLHGVFKVKNTTTLQQHLIDGRDMIIIRMPKDFPPFPQKLKFREPQREERICLVTTNFQTKSMSSMVSDTSCTFPSSDGIFWKHWIQTKDGQCGSPLVSTRDGFIVGIHSASNFTNTNNYFTSVPKNFMELLTNQEAQQWVSGWRLNADSVLWGGHKVFMSKPEEPFQPVKEATQLMN
- outcome of incubation with Ub-tev-His6 (Ub-tev-His6): cleaves Ub-tev-His6
